Reference: patent publication US10654834B2 (Venenum Biodesign, LLC, priority 2016, dated 2020)

What was measured:
[1] = Pharmacokinetic profile in mice after oral gavage; type: in vivo, mouse; settings: mouse; fasted male Hilltop mice, 10 mg/kg oral gavage, plasma; read-out: Cmax
Procedure, shortened: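 Fasted 8-week male Hilltop mice given 10 mg/kg orally in 20% PEG400/80% 0.5% CMC + 0.25% Tween-80. EDTA plasma sampled 0-4 h, measured by LC-MS/MS (MRM, positive ion); Cmax and AUC derived non-compartmentally, values being means of three mice.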

mouse TGR5 receptor = target: T1, mouse TGR5 receptor (Mus musculus, UniProt Q80SS6); assay: Mouse TGR5 HTRF cAMP production assay (HEK293-EBNA cells, Cisbio cAMP HiRange kit); type: cell-based; settings: HEK293-EBNA cells overexpressing mouse TGR5, HTRF cAMP assay
T1 construct: host or cells: HEK293-EBNA (293 c18, ATCC CRL10852)
T1 sequence (Q80SS6 1-329): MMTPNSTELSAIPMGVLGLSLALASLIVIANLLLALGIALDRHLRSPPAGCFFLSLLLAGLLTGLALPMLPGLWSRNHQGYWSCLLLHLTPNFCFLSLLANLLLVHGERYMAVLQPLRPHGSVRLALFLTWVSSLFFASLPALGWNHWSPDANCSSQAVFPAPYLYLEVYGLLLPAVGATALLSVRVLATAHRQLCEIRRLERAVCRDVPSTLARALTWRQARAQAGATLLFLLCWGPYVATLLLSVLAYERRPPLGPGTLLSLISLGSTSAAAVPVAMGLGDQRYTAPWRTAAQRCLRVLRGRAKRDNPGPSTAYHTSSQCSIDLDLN
Procedure, shortened: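 HEK293-EBNA cells stably expressing mouse TGR5 (episomal vector) were suspended in serum-free DMEM with 500 μM IBMX and exposed to 12-point half-log compound dilutions for 1 h at room temperature. cAMP was detected by HTRF (d2-cAMP/anti-cAMP cryptate, 1 h, room temperature), giving EC50 from duplicates.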

| Cmax [1] [ng/mL] | EC50 (mouse TGR5 receptor) [nM] | SMILES |
| --- | --- | --- |
| 5.4 | < 100 | N#Cc1ccc(CCNC(=O)[C@@H]2CCN2c2cc(N3CCC(CCNC(=O)NCS(=O)(=O)O)CC3)nc(C(F)(F)F)n2)cc1 [Compound 270, (S)-(3-(2-(1-(6-(2-((4-cyanophenethyl)carbamoyl)azetidin-1-yl)-2-(trifluoromethyl)pyrimidin-4-yl)piperidin-4-yl)ethyl)ureido)-methanesulfonic acid] |
| 29 | < 100 | O=C(CCCC1CCN(c2cc(N3CCC[C@H]3C(=O)NCCc3ccc(C(F)(F)F)cc3)nc(C(F)(F)F)n2)CC1)NCCS(=O)(=O)O [Compound 58, (S)-2-(4-(1-(2-(trifluoromethyl)-6-(2-((4-(trifluoromethyl)phenethyl)-carbamoyl)-pyrrolidin-1-yl)-pyrimidin-4-yl)piperidin-4-yl)butanamido)ethanesulfonic acid] |
| 3.4 | < 100 | N#Cc1ccc(CCNC(=O)[C@@H]2CCN2c2cc(N3CCC(CCCC(=O)NCCS(=O)(=O)O)CC3)nc(C(F)(F)F)n2)cc1 [Compound 249, (S)-2-(4-(1-(6-(2-((4-cyanophenethyl)carbamoyl)azetidin-1-yl)-2-(trifluoromethyl)pyrimidin-4-yl)piperidin-4-yl)butanamido)ethanesulfonic acid] |
| 2.7 | < 100 | N#Cc1ccc(CCNC(=O)[C@@H]2CCCN2c2cc(N3CCC(CCCC(=O)NCCS(=O)(=O)NCC(=O)O)CC3)nc(C(F)(F)F)n2)cc1 [Compound 115, (S)-2-(2-(4-(1-(6-(2-((4-cyanophenethyl)carbamoyl)pyrrolidin-1-yl)-2-(trifluoromethyl)pyrimidin-4-yl)piperidin-4-yl)butanamido)-ethylsulfonamido)acetic acid] |
| < 0.1 | < 100 | N#Cc1ccc(CCNC(=O)[C@@H]2CCCN2c2cc(N3CCC(CCCC(=O)N[C@@H](CCCNC(=N)N)C(=O)N[C@@H](CCCNC(=N)N)C(=O)O)CC3)cc(C(F)(F)F)n2)cc1 [Compound 202, (S)-2-((S)-2-(4-(1-(2-((S)-2-((4-cyanophenethyl)carbamoyl)pyrrolidin-1-yl)-6-(trifluoromethyl)pyridin-4-yl)piperidin-4-yl)butanamido)-5-guanidinopentanamido)-5-guanidinopentanoic acid] |
| 3.2 | < 100 | N#Cc1ccc(CCNC(=O)[C@@H]2CCN2c2cc(N3CCC(CCCC(=O)NC[C@@H](O)[C@H](O)[C@@H](O)[C@@H](O)CO)CC3)nc(C(F)(F)F)n2)cc1 [Compound 260, (S)—N-(4-cyanophenethyl)-1-(6-(4-(4-oxo-4-(((2R,3S,4S,5S)-2,3,4,5,6-pentahydroxyhexyl)amino)butyl)piperidin-1-yl)-2-(trifluoromethyl)pyrimidin-4-yl)azetidine-2-carboxamide] |
| 64 | < 100 | O=C(O)CCC1CCN(c2cc(N3CC[C@H]3C(=O)NCCc3ccc(C(F)(F)F)cc3)nc(C(F)(F)F)n2)CC1 [Compound 232, (S)-3-(1-(2-(trifluoromethyl)-6-(2-((4-(trifluoromethyl)phenethyl)carbamoyl)azetidin-1-yl)pyrimidin-4-yl)piperidin-4-yl)propanoic acid] |
| 1 | < 100 | N#Cc1ccc(CCNC(=O)[C@@H]2CCCN2c2cc(N3CCC(CCCC(=O)NCCS(=O)(=O)O)CC3)cc(C(F)(F)F)n2)cc1 [Compound 199, (S)-2-(4-(1-(2-(2-((4-cyanophenethyl)carbamoyl)pyrrolidin-1-yl)-6-(trifluoromethyl)pyridin-4-yl)piperidin-4-yl)butanamido)ethanesulfonic acid] |
| 3.7 | < 100 | N[C@@H](CS(=O)(=O)O)C(=O)NCCC1CCN(c2cc(N3CC[C@H]3C(=O)NCCc3ccc(C(F)(F)F)cc3)nc(C(F)(F)F)n2)CC1 [Compound 278, (R)-2-amino-3-oxo-3-((2-(1-(2-(trifluoromethyl)-6-((S)-2-((4-(trifluoromethyl)-phenethyl)carbamoyl)azetidin-1-yl)pyrimidin-4-yl)piperidin-4-yl)ethyl)amino)-propane-1-sulfonic acid] |
| 4.4 | < 100 | N#Cc1ccc(CCNC(=O)[C@@H]2CCCN2c2cc(-c3ccc(CO)cc3)cc(C(F)(F)F)n2)cc1 [Compound 204, (S)—N-(4-cyanophenethyl)-1-(4-(4-(hydroxymethyl)phenyl)-6-(trifluoromethyl)pyridin-2-yl)pyrrolidine-2-carboxamide] |
| 2.8 | < 100 | N#Cc1ccc(CCNC(=O)[C@@H]2CCCN2c2cc(N3CCC(CCNS(=O)(=O)CCNC(=N)N)CC3)nc(C(F)(F)F)n2)cc1 [Compound 130, (S)-N-(4-cyanophenethyl)-1-(6-(4-(2-(2-guanidinoethylsulfonamido)ethyl)piperidin-1-yl)-2-(trifluoromethyl)pyrimidin-4-yl)pyrrolidine-2-carboxamide] |
| 2.7 | < 100 | N#Cc1ccc(CCNC(=O)[C@@H]2CCN2c2cc(N3CCC(CCCC(=O)NCCCCNC(=N)N)CC3)nc(C(F)(F)F)n2)cc1 [Compound 283, (S)-N-(4-cyanophenethyl)-1-(6-(4-(4-((4-guanidinobutyl)amino)-4-oxobutyl)piperidin-1-yl)-2-(trifluoromethyl)pyrimidin-4-yl)azetidine-2-carboxamide] |
| 7.7 | < 100 | N#Cc1ccc(CCNC(=O)[C@@H]2CCN2c2cc(N3CCC(CCNC(=O)NCCC(=O)O)CC3)nc(C(F)(F)F)n2)cc1 [Compound 268, (S)-3-(3-(2-(1-(6-(2-((4-cyanophenethyl)carbamoyl)azetidin-1-yl)-2-(trifluoromethyl)pyrimidin-4-yl)piperidin-4-yl)ethyl)ureido)propanoic acid] |
| 2.6 | < 100 | N#Cc1ccc(CCNC(=O)[C@@H]2CCCN2c2cc(N3CCC(CCCNC(=O)NCCS(N)(=O)=O)CC3)nc(C(F)(F)F)n2)cc1 [Compound 120, (S)-N-(4-cyanophenethyl)-1-(6-(4-(3-(3-(2-sulfamoylethyl)ureido)propyl)piperidin-1-yl)-2-(trifluoromethyl)pyrimidin-4-yl)pyrrolidine-2-carboxamide] |
| 301 | < 100 | N#C/N=C(\NCCC(=O)O)NCCC1CCN(c2cc(N3CC[C@H]3C(=O)NCCc3ccc(C#N)cc3)nc(C(F)(F)F)n2)CC1 [Compound 351, (S,Z)-3-(2-cyano-3-(2-(1-(6-(2-((4-cyanophenethyl)carbamoyl)azetidin-1-yl)-2-(trifluoromethyl)pyrimidin-4-yl)piperidin-4-yl)ethyl)guanidino)propanoic acid] |
| 3.8 | < 100 | N#Cc1ccc(CCNC(=O)[C@@H]2CCCN2c2cc(-c3ccc(CCC(=O)NCS(=O)(=O)O)cc3)cc(C(F)(F)F)n2)cc1 [Compound 206, (S)-(3-(4-(2-(2-((4-cyanophenethyl)carbamoyl)pyrrolidin-1-yl)-6-(trifluoromethyl)pyridin-4-yl)phenyl)propanamido)methanesulfonic acid] |
